Series [1] has as its system THP-1 human monocytic cell line. In words: LPS-stimulated THP-1 macrophage cytokine production (LEGENDplex). It is filed as cell-based. As for the experimental part:
A specific anti-inflammatory effect or activity of a compound is proven, if the compound can decrease the production of one of IL-1B, IL-6 and TNFα in human THP1 macrophages following LPS stimulation, as determined by a standard assay: THP-1 human monocytic cell lines are treated with 100 nM of Phorbol 12-myristate 13-acetate (PMA) for 48 h to induce mature macrophage-like state. Cells are then stimulated with 100 ng/ml of LPS in the absence and presence of 500 μM of compound. After 6 hours, supernatants of treated and untreated cells are collected, and cytokine levels determined using the Human Inflammatory panel LEGENDplex Human Pro-inflammatory Chemokine Panel (Cat. No. 740118). A positive result is considered if the compound is capable of reduce or block the production of IL-1β, IL-6, and TNFα in human THP1 macrophages after LPS stimulation.
Following cells were treated with [10 ng/ml] LPS in the absence and presence 10, 100 and 500 μM of SCA-744. Cytokine levels were determined by LEGENDplex™ Human Inflammation Panel assay from BioLegend. The bar heights represent the concentration means compared to LPS alone of 3 independent experiments carried out in triplicates.
Cells were treated with 100 nM of Phorbol 12-myristate 13-acetate (PMA) for 48 h to induce mature macrophage-like state. Cells were then stimulated with 100 ng/ml of Lipopolysaccharides (LPS) in the absence and presence of 500 μM of SCA-744. After 6 hours, supernatants of treated and untreated cells were collected and the levels of three major pro-inflammatory cytokines TNF-α, IL-6 and IL-1ß were determined using the Human Inflammatory panel of LEGENDPLEX Multi-Analyte Flow assay.

Series [2] concerns SH-SY5Y neuroblastoma cells. Nature of the series: MPP+ induced mitochondria fragmentation in SH-SY5Y cells (MitoTracker confocal imaging). It is filed as cell-based, human. The following applies: MPP+ 0.5 mM 48 hours, SCA-744 500 μM. The protocol:
To test whether SCA-744 would be able to rescue cells from oxidative damage induced by mitochondrial dysfunction, SH-SY5Y neuroblastoma cells were treated with 1-methyl-4-phenylpyridinium (MPP+) (0.5 mM, 48 hours) to induce mitochondria fragmentation. […] To visualize mitochondria, cells were incubated with MitoTracker Red CMXRos, a mildly thiol-reactive chloromethyl moiety for mitochondria labelling (MitoTracker Red CMXRos #9082 Cell Signaling), fixed and mounted. Mitochondrial morphology was imaged with a laser scanning confocal microscope LSM710 Zeiss.

Another series has as its system Osteopontin (OPN). In words: 15N-1H HSQC NMR binding to osteopontin. As for the experimental part: In order to verify the predicted heparan sulfate mimicking activity of SCA-744, its physical interaction was probed with a prototypical HS-binding protein Osteopontin (OPN), a component of the extracellular matrix (ECM). To this end, NMR spectroscopy was used to directly probe the interaction and map the location of the interaction site along the protein backbone. The experimental strategy was as follows: First, ^15N-labelled OPN was prepared following well-established molecular biology technology techniques. Individual residue positions are directly monitored via the so-called ^15N-^1H Heteronuclear Single-Quantum Coherence (HSQC) spectroscopy, where individual cross peaks in the two-dimensional (2D) frequency spectrum corresponds to individual residue positions (amino acids) of the protein. Ligand binding changes the chemical environment of residues located in the binding site and leads to a change in the HSQC spectrum. Since the signal assignment is available, the residue positions which are affected by ligand binding can easily be identified by comparing HSQC spectra of the apo (ligand-free) and ligand-bound state of the protein (FIG. 7A). […] It is very convenient to analyze the chemical shift changes (induced by ligand binding) as a function of residue positions (FIG. 7B,C). Residues that display the largest chemical shift changes are typically part of the binding interface. […] Therefore, it can be concluded that SCA-744 and HS share the same ligand interaction sites and therefore are in competition for binding.

The next series concerns C57BL/6J mice. Nature of the series: LPS-induced acute lung inflammation model: lung histopathology. It is filed as in vivo. The following applies: SCA-744 60 mg/kg i.p. As for the experimental part:
Acute lung inflammation was induced by intratracheal administration of 100 μg LPS (Escherichia coli O111:B4; Sigma Aldrich, St. Louis, MO, USA) dissolved in 60 μl sterile phosphate buffered saline (PBS) under ketamine (120 mg/kg ip.; Calypsol, Gedeon Richter Plc., Budapest, Hungary) and xylazine (6 mg/kg ip.; Sedaxylan, Eurovet Animal Health B.V., Bladel, Netherlands) anaesthesia. 24 h after administration, respiratory function parameters were assessed, and lung samples were harvested for histopathological evaluation.
SCA-744 (60 mg/kg) and its vehicle were injected intraperitoneally (i.p.), 24 h, 12 h, 20 min before and 12 h after intratracheal administration of LPS. […] 24 h and 20 min before LPS treatment. Respiratory function measurement was performed 24 h after LPS administration
Excised lung tissue samples were formalin-fixed (6%) and embedded in paraffin, 5 μm sections cut and stained with haematoxylin-eosin for histological analysis. Assessment of airway inflammation was performed in a blind manner in order to evaluate perivascular/peribronchial edema, neutrophil, macrophage and lymphocyte inflammatory cell infiltration as well as goblet cell metaplasia on a semiquantitative scale ranging from 0 to 3 in 2 fields of vision from three depths of lung tissue from each animal.

Another series has as its system mice. Nature of the series: CFA-induced chronic arthritis model: joint histology. It is filed as in vivo. As to conditions: 60 mg/kg i.p. daily, 21-day period. The protocol: The chronic arthritis was induced by intraplantar (i.pl.) injection of 20 μl complete Freund's adjuvant (CFA, heat-killed Mycobacterium suspended in paraffin oil, 1 mg/ml; Sigma Aldrich, St. Louis, MO, USA) into the right hind paw and 20 μl subcutaneously (s.c.) into the tail root. An additional s.c. injection (20 μl) was administered on the following day (day 1) into the tail root in order to potentiate the systemic effects mimicking the human condition.
The excised tibiotarsal joints are fixed in 4% buffer formaldehye, decalcified and paraffin-embedded, sliced into sections (5 μm) and stained with hematoxylin and esosin. Arthritic changes are scored by a blinded observer using a scale of 0 to 3 according to 1) mononuclear cells infiltration into areolar tissue, 2) synovial hyperplasia, 3) cartilage destruction, 4) bone erosion.

Series [3] can be described thus: Cytotoxicity, CellTiter-Glo cell viability. In kind it is cell-based. As to conditions: human, HEK 293 cells (printed as HEK 293 neuroblastoma cell lines), 72 h treatment, read-out: EC50 cytotoxicity (cell viability, ATP). As for the experimental part: FIG. 19.: In-vitro assessment of SCA-744 (A) and SCA-754 (B) cytotoxicity. Experiments were performed using HEK 293 […] cell lines. The effect of SCA-744 and SCA-754 on cell viability was assessed using a standard ATP, CellTiter-Glo® Luminescent Cell Viability Assay following 72 hours treatment.
In vitro assessment of cytotoxicity of SCA-744 and SCA-754 in mammalian cells. 72 h following SCA-744 and SCA-754-treatment, cell viability was assessed using a standard ATP method, CellTiter-Glo® Luminescent Cell Viability Assay.

This is an account of results in patent US12714682B2, “Calixarene compounds and uses thereof” (UNIVERSITÄT WIEN, priority 2019, dated 2026).

Molecules are shown by their SMILES. “Also recorded” adds a separate entry of the source.

Take `O=S(=O)(O)c1cc2c(O)c(c1)Cc1cc(S(=O)(=O)O)cc(c1O)Cc1cc(S(=O)(=O)O)cc(c1O)Cc1cc(S(=O)(=O)O)cc(c1O)C2` [SCA-744, 4-sulfocalix[4]arene]: the “inhibition of LPS-induced TNF-α, IL-ß and IL-6” value in series [1] (10 ng/ml LPS, 10, 100 and 500 μM, FIG. 2) was “Dose-dependent inhibition”. Further, in series [1] (500 μM, 100 ng/ml LPS, 6 hours, PMA-differentiated THP-1), the “pro-inflammatory cytokine levels (TNF-α, IL-6, IL-1ß) in culture supernatant” value was “significantly decreased”. Besides, the “mitochondria integrity after MPP+” value in series [2] was “protects against cell death and restores mitochondria integrity; also recorded: cells maintained the integrity of mitochondria”. The “binding to OPN (HSQC spectra ligand-free vs ligand-bound)” value in the series with Osteopontin (OPN) (15N-labelled OPN) is “binds to a heparan sulfate binding protein, osteopontin; also recorded: unambigious proof for SCA-744 binding to OPN”. Further, the “binding sites on OPN (chemical shift changes by residue)” value with Osteopontin (OPN) (HS compared with SCA-744) is “overlapping binding sites”. Also, the “pathological changes in perivascular oedema and perivascular/peribronchial infiltration by neutrophils and macrophages” value in the series on C57BL/6J mice is reported as “prevented or greatly reduced the pathological changes”. Also, in the series with C57BL/6J mice (dexamethasone 5 mg/kg ip.), the “semiquantitative pathology scores (oedema, granulocytes, macrophages, composite; scale 0 to 3)” value is listed as “not statistically significantly different from untreated controls”. Further, the “synovial hyperplasia score (scale 0 to 3)” value in the series with mice was “significantly lower”. The EC50 (in general, the concentration needed to bring the measured effect to its halfway point) at 72 h in series [3] amounted to 2000 µM.
